This passage reports IC50 results from ChEMBL document CHEMBL4145503, “Design, synthesis and in vitro biological evaluation of novel [1,2,3]triazolo[4,5-d]pyrimidine derivatives containing a thiosemicarbazide moiety” (Eur J Med Chem, 2018).

What all share (format): functional, cell-based
Experiment [1] relates to MGC-803. Nature of the experiment: Antiproliferative activity against human MGC803 cells after 72 hrs by MTT assay. Conditions: MGC-803, 72 h.
The test system of experiment [2] is PC-3. Nature of the experiment: Antiproliferative activity against human PC3 cells after 72 hrs by MTT assay. Conditions: PC-3, 72 h.
The test system of experiment [3] is NCI-H1650. The experiment is described as follows: Antiproliferative activity against human NCI-H1650 cells after 72 hrs by MTT assay. Conditions: NCI-H1650, 72 h.

pIC50: −log10 of the molar value.

Take `CCCSc1nc(NNC(=S)NCc2ccccc2)c2nnn(CCc3cccs3)c2n1`: the results for the pIC50 in experiment [1], in experiment [2] and in experiment [3] were 4.39, less than 4.19 and less than 4.19, respectively.

For the compound `CCCSc1nc(NNC(=S)NCc2ccccc2)c2nnn(CCc3c[nH]c4ccccc34)c2n1`, the figures for the pIC50 in experiment [1], in experiment [2] and in experiment [3] were 4.52, 4.82 and less than 4.19, respectively.

Consider `O=c1[nH]cc(F)c(=O)[nH]1` [FLUOROURACIL], for which the pIC50 is 5.10 in experiment [1], 4.56 in experiment [2] and 4.83 in experiment [3].
